Measured values from patent publication US6903132B2, “Non-peptide GnRH agents, pharmaceutical compositions and methods for their use” (Agouron Pharmaceuticals, Inc., priority 2002, dated 2005).

What follows are compounds tested against T1, human GnRH receptors (Homo sapiens, UniProt P30968) (assay: Radioligand binding assay: inhibition of binding of 125I-GnRH-A to GnRH receptors (membranes)). Details: Human GnRH receptor; competition with 125I-GnRH-A; Ki calculated from IC50 (Cheng et al.).
T1 construct: expressed in transfected cells; host or cells: HEK 293
T1 sequence (P30968 1-328): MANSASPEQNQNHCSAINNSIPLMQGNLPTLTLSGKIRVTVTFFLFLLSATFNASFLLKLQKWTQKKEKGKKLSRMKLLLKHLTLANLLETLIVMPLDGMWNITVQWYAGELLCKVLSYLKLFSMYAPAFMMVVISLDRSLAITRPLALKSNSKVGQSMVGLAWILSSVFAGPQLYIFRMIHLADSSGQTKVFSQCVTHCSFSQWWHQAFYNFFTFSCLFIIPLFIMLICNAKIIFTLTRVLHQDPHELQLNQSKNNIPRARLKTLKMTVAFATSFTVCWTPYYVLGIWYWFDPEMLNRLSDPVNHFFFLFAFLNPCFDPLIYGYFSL
Method: HEK 293 cells stably transfected with mouse or human GnRH receptors as described above are grown in Dulbecco's high-glucose, modified Eagle's medium (DMEM) supplemented with 0.2% G418, 10% fetal bovine serum (FBS) and 100U/mL penicillin/streptomycin. GH3 cells stably transfected with the rat GnRH receptor (GGH3) were provided by Dr. William Chin (Harvard Medical School, Boston, Mass.). These cells are extensively characterized previously (Kaiser et al., 1997). The cells are grown in low glucose DMEM containing: 100U/mL penicillin/streptomycin, 0.6% G418 and 10% heat-inactivated FBS.
HEK 293 cells containing mouse or human receptors, or rat pituitaries (Pel Freez Biologicals, Rogers, Ark.) are homogenized in buffer A containing: 50 mM Tris (pH 7.4), 0.32 M sucrose, 2 mM EGTA, 1 mM PMSF, 5 μg/ml aprotinen, 5 μg/ml Pepstatin A, and 1 μg/ml leupeptin. Homogenized cells are centrifuged at 4° C. at 20,000×g for 25 minutes, re-suspended in buffer A and re-centrifuged at 4° C. at 20,000×g for an additional 25 minutes. Total membrane protein was determined with a BCA kit (Pierce, Rockford, Ill.). Membranes are stored at −70° C. at a final membrane protein concentration of approximately 5 mg/ml.
The radioiodinated agonist analog of GnRH, [des-Gly^10, D-Ala^6]GnRH ethylamide (^125I-GnRH-A), is used as the radioligand. One μg of GnRH-A diluted in 0.5 M phosphate buffer (pH 7.4) is added to an lodogen®-coated borosilicate glass tube (Pierce, Rockford, Ill.) containing 35 μl of 0.05 M phosphate buffer (pH 7.4-7.6) and 1 mCi of Na[^125I]. The reaction mixture is vortexed and incubated for 1 minute at room temperature. After one minute, the mixture is vortexed and allowed to incubate for an additional minute. 2 ml of 0.5 M acetic acid/1% BSA is added to the reaction tube and the mixture is added to a C18 Sep-Pak cartridge. The cartridge is washed with subsequent washes of 5 ml H2O and 5 ml 0.5 M acetic acid and then eluted with 5×1 ml of 60%CH3CN/40% 0.5 M acetic acid. The eluate is diluted with 3× volume of HPLC buffer A (0.1% TFA in H2O) and loaded onto a C18 column. The iodinated product is eluted over 20-25 min with a gradient of 25-100% CH3CN containing 0.1% TFA. The radioactive fractions (750 μl/fraction) are collected into clean polypropylene tubes containing 100 μl of 10% BSA. Fractions are assessed for biological activity by radiolig and binding. Specific activity of the radioligand was approximately 2200 Ci/mmol.
Membranes are diluted to 0.01-0.5 mg/ml (depending upon the species of receptor) with assay buffer containing 50 mM HEPES (pH 7.4), 1 mM EDTA, 2.5 mM MgCl2, and 0.1% BSA. Membranes (diluted to utilize similar receptor numbers between assays) are incubated with approximately 0.04-0.06 nM ^125I-GnRH-A in the presence or absence of competing agents (0.1-10,000 nM) in a total volume of 200 μl in 96-well polypropylene plates for 1 hour at room temperature. Assays are stopped by rapid filtration onto 96-well GF/C filters soaked in 0.1% polyethylenimine (PEI) utilizing a Packard 96-well cell harvester. Filters are washed three times with ice-cold PBS (50 mM NaPO4, 0.9% NaCl, 2 mM MgCl2, and 0.02% NaN3, pH 7.4). 35 μl of scintillation cocktail is added to each filter well and filters are counted on a Packard Topcount. Control dose-response curves are generated to GnRH (0.1 nM-100 nM) in each competition binding experiment. Ki values were calculated from IC50 values according to Cheng et al., Biochemical Pharmacol. 22: 3099-3108, 1973. [formula]

How did the Ki turn out when COc1cc(Cc2ccc(C(=O)NNc3cc(C)c4c(C)nn(C)c4n3)o2)c(OC)c(OC)c1 [Example J8, 5-(2,3,5-trimethoxybenzyl)-N′-(1,3,4-trimethyl-1H-pyrazolo[3,4-b]pyridin-6-yl)-2-furohydrazide] was run?
The Ki was 3890 nM.

For Cc1cc2c(cc1Cc1ccc(C(=O)NNc3ccc(C(F)(F)F)cn3)o1)C(C)(C)OC2(C)C [Example E5, 5-(1,1,3,3,6-Pentamethyl-1,3-dihydro-isobenzofuran-5-ylmethyl)-furan-2-carboxylic acid N′-(5-trifluoromethyl-pyridin-2-yl)-hydrazide], which Ki is on record?
Its Ki is 390 nM.

For Cc1cc(NNC(=O)c2ccc(Oc3cc4c(cc3Cl)N(C)C(=O)CC4(C)C)o2)nc2c1c(C)nn2C [Example L2, 5-(7-Chloro-1,4,4-trimethyl-2-oxo-1,2,3,4-tetrahydro-quinolin-6-yloxy)-furan-2-carboxylic acid N′-(1,3,4-trimethyl-1H-pyrazolo[3,4-b]pyridin-6-yl)-hydrazide], which Ki is on record?
The Ki was 5020 nM.

With Cc1ccccc1Oc1ccc(C(=O)NNc2cc(C)c3c(C)nn(C)c3n2)o1 [Example I4, 5-(2-Methylphenoxy)-N′-(1,3,4-trimethyl-1H-pyrazolo[3 ,4-b]pyridin-6-yl)-2-furohydrazide] as the compound, how does the Ki read?
Its Ki is 980 nM.

For COc1ccc(OC)c(OC)c1Cc1ccc(C(=O)NNc2cc(C)c3c(C)nn(C)c3n2)o1 [Example J9, 5-(2,3,6-trimethoxybenzyl)-N′-(1,3,4-trimethyl-1H-pyrazolo[3,4-beta]pyridin-6-yl)-2-furohydrazide], which Ki is on record?
The Ki was 4770 nM.

Which Ki does the source give for CC(=O)N(C)c1ccc(C)c(Oc2ccc(C(=O)NNc3cc(C)c4c(C)nn(C)c4n3)o2)c1 [Example I30, N-Methyl-N-(4-methyl-3-{5-[N′-(1,3,4-trimethyl-1H-pyrazolo[3,4-b]pyridin-6-yl)-hydrazinocarbonyl]-furan-2-yloxy}-phenyl)-acetamide] here?
Its Ki is 630 nM.

Cc1cc2c(cc1Oc1ccc(C(=O)NNc3ccc(C(F)(F)F)cn3)o1)C(C)(C)OC2 [Example N4, 5-(3,3,6-Trimethyl-1,3-dihydro-isobenzofuran-5-yloxy)-furan-2-carboxylic acid N′-(5-trifluoromethyl-pyridin-2-yl)-hydrazide] was tested. Which Ki did it give?
The Ki was 1500 nM.

How did the Ki turn out when CCC(C)(C)c1ccc(OC)c(Cc2ccc(C(=O)NNc3cc(C)c4c(C)nn(C)c4n3)o2)c1 [Example J13, 5-[2-Methoxy-5-(tert-pentyl)benzyl]-N′-(1,3,4-trimethyl-1H-pyrazolo[3,4-b]pyridin-6-yl)-2-furohydrazide] was run?
Its Ki is over 10000 nM.

How did the Ki turn out when COc1cccc(OC)c1CNNC(=O)c1ccc(Cc2cc3c(cc2C)C(C)(C)CCC3(C)C)o1 [Example A2] was run?
Its Ki is 700 nM.

With Cc1cc2c(cc1Cc1ccc(C(=O)NNc3ccccn3)o1)C(C)(C)CCC2(C)C [Example C10, 5-[(3,5,5,8,8-Pentamethyl-5,6,7,8-tetrahydro-2-napthalenyl)methyl]-N′-(2-pyridinyl)-2-furohydrazide] as the compound, how does the Ki read?
The Ki was 350 nM.

With Cc1c(C)c(C)c(Cc2ccc(C(=O)NNc3cc(C)c4c(C)nn(C)c4n3)o2)c(C)c1C [Example J5, 5-(2,3,4,5,6-Pentamethylbenzyl)-N′-(1,3,4-trimethyl-1H-pyrazolo[3,4-b]pyridin-6-yl)-2-furohydrazide] as the compound, how does the Ki read?
The Ki was 1400 nM.

With COc1cc2c(cc1Cc1ccc(C(=O)NNc3nccc(NCC4CCCO4)n3)o1)C(C)(C)CCC2(C)C (stereo not drawn) [Example C7] as the compound, how does the Ki read?
The Ki was 1740 nM.

How did the Ki turn out when CCN(CC)C(=O)C1(c2ccc(C)c(Cc3ccc(C(=O)NNc4cc(C)c5c(C)nn(C)c5n4)o3)c2)CC1 [Example J20, N,N-diethyl-1-{4-methyl-3-[(5-{[2-(1,3,4-trimethyl-1H-pyrazolo[3,4-b]pyridin-6-yl)hydrazino]carbonyl}-2-furyl)methyl]phenyl} cyclopropanecarboxamide] was run?
The Ki was 1410 nM.

Which Ki does the source give for Cc1ccc(C)c(Cc2ccc(C(=O)NNc3cc(C)c4c(C)nn(C)c4n3)o2)c1 [Example J17] here?
The Ki was 610 nM.

With Cc1cc2c(cc1Oc1ccc(C(=O)NNc3ccc(S(N)(=O)=O)cc3)o1)C(C)(C)CC2 [Example I14, 4-(2-{5-[(3,3,6-Trimethyl-2,3-dihydro-1H-inden-5-yl)oxy]-2-furoyl}hydrazino)benzenesulfonamide] as the compound, how does the Ki read?
Its Ki is 225 nM.

COc1c(Cl)c(C)c(Cl)c(C)c1Cc1ccc(C(=O)NNc2cc(C)c3c(C)nn(C)c3n2)o1 [Example J30, 5-(3,5-Dichloro-2-methoxy-4,6-dimethyl-benzyl)-furan-2-carboxylic acid N′-(1,3,4-trimethyl-1H-pyrazolo[3,4-b]pyridin-6-yl)-hydrazide] was tested. Which Ki did it give?
The Ki was 480 nM.

With COc1cc(OC)c(OC)cc1Cc1ccc(C(=O)NNc2cc(C)c3c(C)nn(C)c3n2)o1 [Example J14, 5-(2,4,5-trimethoxybenzyl)-N-(1,3,4-trimethyl-1H-pyrazolo[3,4-b]pyridin-6-yl)-2-furohydrazide] as the compound, how does the Ki read?
The Ki was over 10000 nM.

How did the Ki turn out when Cc1cccc(C)c1SCc1ccc(C(=O)NNc2cc(C)c3c(C)nn(C)c3n2)o1 [Example J25, 5-{[(2,6-dimethylphenyl)sulfanyl]methyl}-N′-(1,3,4-trimethyl-1H-pyrazolo[3,4-b]pyridin-6-yl)-2-furohydrazide] was run?
The Ki was 1670 nM.

Which Ki does the source give for Cc1nc2ccccc2c(Cl)c1Cc1ccc(C(=O)NNc2cc(C)c3c(C)nn(C)c3n2)o1 [Example K1, 5-(4-Chloro-2-methyl-quinolin-3-ylmethyl)-furan-2-carboxylic acid N′-(1,3,4-trimethyl-1H-pyrazolo[3,4-b]pyridin-6-yl)-hydrazide] here?
The Ki was 4430 nM.

Which Ki does the source give for Cc1cc(C)cc(NNC(=O)c2ccc(Cc3cc4c(cc3C)C(C)(C)CCC4(C)C)o2)c1 [Example B2, N′-(3,5-dimethylphenyl)-5-[(3,5,5,8,8-pentamethyl-5,6,7,8-tetrahydro-2-naphthalenyl)methyl]-2furohydrazide] here?
Its Ki is 310 nM.

For Cc1cc2c(cc1Cc1ccc(C(=O)NNc3c(Cl)cncc3Cl)o1)C(C)(C)CCC2(C)C [Example C8, N′-(3,5-dichloro-4-pyridinyl)-5-[(3,5,5,8,8-pentamethyl-5,6,7,8-tetrahydro-2-naphthalenyl)methyl]-2-furohydrazide], which Ki is on record?
Its Ki is 410 nM.

Cc1cc2c(cc1Oc1ccc(C(=O)NNc3nc(N)nc(C4CC4)n3)o1)C(C)(C)CC2 [Example I13, N′-(4-Amino-6-cyclopropyl-1,3,5-triazin-2-yl)-5-[(3,3,6-trimethyl-2,3-dihydro-1H-inden-5-yl)oxy]-2-furohydrazide] was tested. Which Ki did it give?
The Ki was 40 nM.

With COc1cc(OC)c(Cc2ccc(C(=O)NNc3cc(C)c4c(C)nn(C)c4n3)o2)c(OC)c1 [Example J10, 5-(2,4,6-trimethoxybenzyl)-N-(1,3,4-trimethyl-1H-pyrazolo[3,4-b]pyridin-6-yl)-2-furohydrazide] as the compound, how does the Ki read?
The Ki was 1690 nM.

For COc1cc(OC)c(CNNC(=O)c2ccc(Cc3cc4c(cc3C)C(C)(C)CCC4(C)C)o2)c(OC)c1 [Example A1, 5-[(3,5,5,8,8-Pentamethyl-5,6,7,8-tetrahydro-2-naphthalenyl)methyl]-N′-(2,4,6-trimethoxybenzyl)-2-furohydrazide], which Ki is on record?
Its Ki is 1840 nM.
